The test system of assay [1] is caspase 3,7 activity in A431 cells. Briefly: cells. An excerpt: As described below, the capsase 3,7 assay uses the Promega Caspase-Glo 3/7 assay kit (cat no. G8092).
The Caspase-Glo® 3/7 Assay is a luminescent assay that measures caspase-3 and −7 activities in purified enzyme preparations or cultures of adherent or suspension cells. The assay provides a proluminescent caspase-3/7 substrate, which contains the tetrapeptide sequence, DEVD. This substrate is cleaved to release aminoluciferin, a substrate of luciferase used in the production of light. The Caspase-Glo® 3/7 Reagent has been optimized for caspase activity, luciferase activity and cell lysis. The addition of the single Caspase-Glo® 3/7 Reagent in an “add-mix-measure” format results in cell lysis, followed by caspase cleavage of the substrate and generation of a “glow-type” luminescent signal. The Caspase-Glo® 3/7 Assay is designed for use with multiwell plate formats, making it ideal for automated high-throughput screening of caspase activity or apoptosis.
Staurosporine was used as a positive control.
For the capsase 3,7 assay, cells were incubated for 5.5 hrs at 37° C., 5% CO2. The plate was removed from the incubator and equilibrated to room temperature. After 30 min, 25 μl Caspase 3/7 detection reagent (Promega Caspase-Glo 3/7 assay kit, cat no. G8092) was added to each well. The plate was covered with tin foil and shaken on a plate shaker at speed 4 for 3 min. The plate was then incubated for an additional 60 min at room temperature. Luminescence was detected using the PolarStar plate reader.
All statistical analyses were done using GraphPad Prism.
The assay was stopped after 6 hrs and the presence of caspase was measured using the Promega Caspase-Glo® 3/7 Assay.

Another assay relates to MDBK line. Put plainly: MTT Cell Proliferation Assay, MDBK line. Type of assay: cell-based, bovine. The note with it: Bos taurus, MDBK. Put shortly:
(§1)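 Cells plated overnight, then exposed 3 days at 37 °C, 5% CO2 to compound in growth medium with 0.5% FBS and 0.5% DMSO final (0.5% DMSO as control).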

The test system of assay [2] is epithelial carcinoma A431 cell line. Briefly: MTT Cell Proliferation Assay, A431 cell line. Type of assay: cell-based. The following applies: for pIC50: Homo sapiens. The method in brief:
as §1

[3] abbreviates: Homo sapiens, A-431, read-out: Total Apoptosis (increase in caspase 3,7 activity as percentage of the maximal response).

Structures are written as SMILES. pIC50: −log10 of the molar value. Where two headings read alike, the source gives them in different places.

Regarding `Cc1c(Cl)cnc(NC(c2cccc(Cl)c2Cl)c2ccc3cccnc3c2O)c1F` (stereo not shown) [AD4-13192], in assay [1] (setting [3]), the Emax at 8 µM stood at 29% and the Emax at 16 µM amounted to 32%. The “effect on Tarceva to increase caspase 3,7 activity” value in assay [1] (Tarceva plus compound, A431 cells, 6 hrs) is “synergistic (greater-than-additive) effect”. Further, the “Ability to Synergize with Tarceva” value in assay [1] (caspase 3,7 activity, A431 cells) is listed as “+++ (0.3-0.7 Synergism)”.

For the compound `Oc1c(C(Nc2ccccn2)c2ccc(C(F)(F)F)cc2)ccc2cccnc12` (stereo not shown) [compound 10460], the pIC50 is 6.43 in the assay with MDBK line (10 point follow-up, second value of pair, read-out: MTT (10 Point follow-up) MDBK); 6.28 with MDBK line (72 h, second value of A431/MDBK pair, read-out: MTT-72 h MDBK); 6.55 in assay [2] (A-431, 10 point follow-up, first value of pair, read-out: MTT (10 Point follow-up) A431); 6.54 in assay [2] (A-431, 72 h, 72 h, first value of A431/MDBK pair, read-out: MTT-72 h A431). Moreover, the “MTT (10 Point follow-up) ratio” value in assay [2] (10 point follow-up, value in brackets, numerically MDBK over A431) turned out to be 1.34. In addition, the “MTT-72 h A431/MDBK (ratio)” value in assay [2] (72 h, value in brackets, numerically MDBK value over A431 value) stood at 1.84.

Source of the values: patent US9073858B2, “Methods of targeted drug development” (priority 2010, dated 2015).
